Measured values as given in PubChem BioAssay (NCI).
Where “and” joins values, the source holds several entries; their conditions need not be identical. Equal entries are not always repeated.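 96-well plates; 48 h exposure; 5 concentrations. Endpoints by linear interpolation between flanking doses. Not reached: highest tested concentration assigned. GI50 marks 50% less growth. The concentration for full growth arrest is given as TGI.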

How the values were obtained:
Test in all cases: NCI tumour cell line growth inhibition, 48 h
SNB-75 CNS = test system: SNB-75 CNS
COLO 205 colon = test system: COLO 205 colon
IGROV1 ovarian = test system: IGROV1 ovarian
SK-MEL-2 melanoma = test system: SK-MEL-2 melanoma
KM12 colon = test system: KM12 colon
K-562 leukemia = test system: K-562 leukemia
SR leukemia = test system: SR leukemia
CAKI-1 renal = test system: CAKI-1 renal
M14 melanoma = test system: M14 melanoma
A498 renal = test system: A498 renal

Row | SMILES | GI50 (SNB-75 CNS) | TGI (SNB-75 CNS) | GI50 (COLO 205 colon) | TGI (COLO 205 colon) | TGI (IGROV1 ovarian) | GI50 (SK-MEL-2 melanoma) | TGI (SK-MEL-2 melanoma) | GI50 (KM12 colon) | TGI (KM12 colon) | GI50 (K-562 leukemia) | TGI (K-562 leukemia) | TGI (SR leukemia) | TGI (CAKI-1 renal) | GI50 (M14 melanoma) | TGI (M14 melanoma) | GI50 (A498 renal) | TGI (A498 renal) | GI50 (IGROV1 ovarian) | GI50 (SR leukemia) | GI50 (CAKI-1 renal)
1 | COc1cccc2c1C(=O)c1c(O)c3c(c(O)c1C2=O)CC(O)(C(C)=O)CC3OC1CC(N)C(O)C(C)O1 (stereo not given) | 0.0256 µg/mL | 0.138 µg/mL | 0.114 µg/mL | 0.334 µg/mL | 1.68 µg/mL | 0.102 µg/mL | 0.403 µg/mL | 0.0445 µg/mL | 0.776 µg/mL | 0.0156 µg/mL | 0.922 µg/mL | 0.152 µg/mL | 0.015 µg/mL | 0.0403 µg/mL | 0.705 µg/mL | 0.0558 µg/mL | 0.39 µg/mL | – | – | –
2 | O=C(Nc1c(O)[nH]c(=S)[nH]c1=O)c1ccccn1 | – | > 100 µM | – | > 100 µM | > 100 µM | – | > 100 µM | – | > 100 µM | – | > 100 µM | > 100 µM | > 100 µM | – | > 100 µM | – | > 100 µM | – | – | –
3 | CC(=O)OCC1OC(Nc2[nH]c(=O)n(C)c(=O)c2-c2csc(N)n2)C(OC(C)=O)C(OC(C)=O)C1OC(C)=O (stereo not given) | – | > 100 µM | – | > 100 µM | > 100 µM | – | > 100 µM | – | > 100 µM | – | > 100 µM | > 100 µM | > 100 µM | – | > 100 µM | – | > 100 µM | – | – | –
4 | CCN(CC)CCNC(=O)c1ccccc1NC(=O)C(=O)Nc1ccccc1C(=O)NCCN(CC)CC | – | > 100 µM | – | 35.8 µM | > 100 µM | – | > 100 µM | – | > 100 µM | – | 42.1 µM | 47.6 µM | > 100 µM | – | 33.9 µM | – | > 100 µM | – | – | –
5 | C[n+]1c(/C=C\C=C\N2CCCCC2)sc2ccccc21 | 3930 nM | 17 µM | 0.204 µM | 0.454 µM | 33.8 µM | 0.634 µM | 14.3 µM | 270 nM | 3.02 µM | 172 nM | 12.7 µM | 3.08 µM | 28.9 µM | 2.82 µM | > 35.2 µM | 0.293 µM | 9.04 µM | 0.84 µM | 105 nM | 4.8 µM
6 | CNC(=O)c1cc(COc2nnc(Nc3ccc(Cl)cc3)c3ccoc23)ccn1 | 769 nM and 2780 nM | 4.71 µM and > 10 µM | 20.6 µM and > 10 µM | > 79 µM | 27.4 µM and > 10 µM | 6.71 µM and > 10 µM | 21 µM and > 10 µM | 21500 nM and > 10000 nM | 80.9 µM and > 10 µM | 19600 nM and > 10000 nM | 72 µM and > 10 µM | 83.1 µM and > 10 µM | 19.7 µM and > 10 µM | 15.7 µM and > 10 µM | 54.9 µM and > 10 µM | 6.65 µM and > 10 µM | 21.9 µM and > 10 µM | 11.4 µM and > 10 µM | 20100 nM and > 10000 nM | 3.46 µM and > 10 µM
7 | Cc1ccc(C(=O)N(CCCN)[C@@H](c2nc3cc(Cl)ccc3c(=O)n2Cc2ccccc2)C(C)C)cc1 | < 10 nM | 1.56 µM and 1.37 µM | < 0.01 µM | 1.1 µM | 2.09 µM | < 0.01 µM | – | < 10 nM | 1.29 µM and 1.44 µM | < 10 nM | 1.67 µM and 1.23 µM | 1.63 µM and 1.44 µM | 2.33 µM and 1.94 µM | < 0.01 µM | < 0.01 µM | < 0.01 µM | 1.77 µM and 0.816 µM | < 0.0336 µM | < 10 nM | –
8 | O=[As](O)(O)c1ccc(NCc2ccccc2)cc1 | – | > 100 µM | – | > 100 µM | > 100 µM | – | > 100 µM | – | > 100 µM | – | > 100 µM | > 100 µM | > 100 µM | – | > 100 µM | – | > 100 µM | – | – | –
9 | C(=Nc1ccccc1)C1CCCC[N-]1.C(=Nc1ccccc1)C1CCCC[N-]1.[Cu+2].[O-][Cl+3]([O-])([O-])O (stereo not given) | 23600 nM | 59 µM | 12.8 µM | > 52.2 µM | 47.8 µM | 15.8 µM | 40.9 µM | 1070 nM | 22.4 µM | 745 nM | 14.4 µM | 6.12 µM | 16.6 µM | 7.4 µM | 27.9 µM | 18.1 µM | 44.9 µM | 14 µM | 1640 nM | 3.96 µM
10 | Cc1c2cc[nH]c(=O)c2c(C)c2c1[nH]c1cc(OCCN3CCN(C)CC3)ccc12 | 1230 nM | 6.81 µM | 0.353 µM | 2.2 µM | 7.59 µM | 1.52 µM | 3.43 µM | 1190 nM | 5.61 µM | 949 nM | 10.7 µM | 12 µM | 9.55 µM | 1.2 µM | 2.94 µM | 1.3 µM | 2.94 µM | 0.799 µM | 314 nM | 2.17 µM
